Data reported in patent US9630958B2, “Triazine compounds” (Sphaera Pharma Pte. Ltd., priority 2012, dated 2017).

What was measured:
Recombinant mTOR (FRAP1) = molecular target: T1, Recombinant mTOR (FRAP1) (Homo sapiens, UniProt P42345); test: mTOR in vitro kinase assay (TR-FRET, phosphorylation of GFP-4E-BP1); type: biochemical; conditions: for IC50: 8 μM ATP, 400 nM GFP-4E-BP1; for inhibition at 1 µM: 1 uM compound, read-out: mTOR % Inhib@1 uM
T1 construct: purchased Invitrogen
Method in brief: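 Recombinant human mTOR with GFP-4E-BP1 substrate at 400 nM and 8 μM ATP, 1 h at room temperature, then quenched with 10 mM EDTA plus 2 nM Tb-anti-p4E-BP1 (pThr46) for 1 h. TR-FRET 520/486 nm ratio fitted against inhibitor concentration by four-parameter sigmoidal regression.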

[1] = molecular target: T2, PI3 Kinase alpha (p110 alpha/p85 alpha) (Homo sapiens, UniProt P42336); test: PI3K TR-FRET assay (Transcreener ADP2); type: biochemical; conditions: for IC50: PI3K alpha, 1 μM ATP, 50 μM PIP2
T2 construct: purchased Invitrogen
Method in brief: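 p110α/p85α with diC8 PIP2 (50 μM) and 1 μM ATP in 50 mM HEPES pH 7.4, MgCl2, CHAPS, DTT, EGTA; 1 h at room temperature. ADP detected by Transcreener ADP2 TR-FRET (665/615 nm ratio), converted to product via ADP-ATP standard curve; IC50 from four-parameter fit of % inhibition.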

T2 sequence (P42336 whole entry): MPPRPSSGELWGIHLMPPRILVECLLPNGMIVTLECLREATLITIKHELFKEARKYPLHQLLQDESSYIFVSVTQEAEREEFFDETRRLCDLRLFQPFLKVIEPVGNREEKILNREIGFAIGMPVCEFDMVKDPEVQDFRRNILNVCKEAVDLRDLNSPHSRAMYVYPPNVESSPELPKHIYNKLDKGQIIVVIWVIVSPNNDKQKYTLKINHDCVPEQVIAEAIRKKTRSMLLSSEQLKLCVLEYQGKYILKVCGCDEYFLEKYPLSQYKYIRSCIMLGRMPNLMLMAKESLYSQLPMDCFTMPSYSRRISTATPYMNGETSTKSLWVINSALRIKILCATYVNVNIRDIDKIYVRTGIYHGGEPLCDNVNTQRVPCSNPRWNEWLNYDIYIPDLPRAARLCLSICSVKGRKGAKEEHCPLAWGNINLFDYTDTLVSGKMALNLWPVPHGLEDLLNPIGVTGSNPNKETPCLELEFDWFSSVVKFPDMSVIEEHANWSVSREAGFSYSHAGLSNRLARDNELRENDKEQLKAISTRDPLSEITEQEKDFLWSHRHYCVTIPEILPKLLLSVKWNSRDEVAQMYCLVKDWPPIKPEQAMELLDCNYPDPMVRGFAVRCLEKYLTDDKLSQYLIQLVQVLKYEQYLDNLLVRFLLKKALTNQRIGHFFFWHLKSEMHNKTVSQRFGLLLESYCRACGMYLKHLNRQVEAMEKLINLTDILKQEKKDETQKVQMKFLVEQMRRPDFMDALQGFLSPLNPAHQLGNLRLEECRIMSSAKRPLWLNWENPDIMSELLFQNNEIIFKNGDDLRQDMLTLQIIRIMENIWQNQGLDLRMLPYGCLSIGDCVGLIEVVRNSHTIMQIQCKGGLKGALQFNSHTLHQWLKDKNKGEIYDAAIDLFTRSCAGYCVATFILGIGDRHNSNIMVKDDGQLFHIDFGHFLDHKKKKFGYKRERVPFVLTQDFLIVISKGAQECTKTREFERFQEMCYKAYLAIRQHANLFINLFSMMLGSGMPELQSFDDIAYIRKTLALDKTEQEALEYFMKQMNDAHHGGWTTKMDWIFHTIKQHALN
T2 sequence (P27986 whole entry partner): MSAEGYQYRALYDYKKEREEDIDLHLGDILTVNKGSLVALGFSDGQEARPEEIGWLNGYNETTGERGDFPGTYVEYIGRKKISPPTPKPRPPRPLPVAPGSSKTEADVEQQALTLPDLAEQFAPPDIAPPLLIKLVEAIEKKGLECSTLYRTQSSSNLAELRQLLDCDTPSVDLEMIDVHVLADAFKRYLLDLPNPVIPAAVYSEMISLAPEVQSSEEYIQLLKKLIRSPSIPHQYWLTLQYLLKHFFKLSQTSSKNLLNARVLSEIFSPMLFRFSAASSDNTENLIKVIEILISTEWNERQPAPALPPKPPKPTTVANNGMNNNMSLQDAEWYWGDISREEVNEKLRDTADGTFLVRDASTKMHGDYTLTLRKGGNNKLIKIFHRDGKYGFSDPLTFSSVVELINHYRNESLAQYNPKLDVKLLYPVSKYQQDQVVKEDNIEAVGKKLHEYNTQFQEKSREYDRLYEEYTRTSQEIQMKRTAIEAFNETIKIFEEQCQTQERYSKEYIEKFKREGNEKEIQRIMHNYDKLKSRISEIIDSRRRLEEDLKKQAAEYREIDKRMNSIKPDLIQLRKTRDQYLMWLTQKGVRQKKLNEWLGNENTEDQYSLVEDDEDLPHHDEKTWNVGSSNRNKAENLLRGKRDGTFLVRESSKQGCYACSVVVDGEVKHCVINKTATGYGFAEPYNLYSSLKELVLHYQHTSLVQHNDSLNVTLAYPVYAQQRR
T1 sequence (P42345 1360-2549 limits assumed): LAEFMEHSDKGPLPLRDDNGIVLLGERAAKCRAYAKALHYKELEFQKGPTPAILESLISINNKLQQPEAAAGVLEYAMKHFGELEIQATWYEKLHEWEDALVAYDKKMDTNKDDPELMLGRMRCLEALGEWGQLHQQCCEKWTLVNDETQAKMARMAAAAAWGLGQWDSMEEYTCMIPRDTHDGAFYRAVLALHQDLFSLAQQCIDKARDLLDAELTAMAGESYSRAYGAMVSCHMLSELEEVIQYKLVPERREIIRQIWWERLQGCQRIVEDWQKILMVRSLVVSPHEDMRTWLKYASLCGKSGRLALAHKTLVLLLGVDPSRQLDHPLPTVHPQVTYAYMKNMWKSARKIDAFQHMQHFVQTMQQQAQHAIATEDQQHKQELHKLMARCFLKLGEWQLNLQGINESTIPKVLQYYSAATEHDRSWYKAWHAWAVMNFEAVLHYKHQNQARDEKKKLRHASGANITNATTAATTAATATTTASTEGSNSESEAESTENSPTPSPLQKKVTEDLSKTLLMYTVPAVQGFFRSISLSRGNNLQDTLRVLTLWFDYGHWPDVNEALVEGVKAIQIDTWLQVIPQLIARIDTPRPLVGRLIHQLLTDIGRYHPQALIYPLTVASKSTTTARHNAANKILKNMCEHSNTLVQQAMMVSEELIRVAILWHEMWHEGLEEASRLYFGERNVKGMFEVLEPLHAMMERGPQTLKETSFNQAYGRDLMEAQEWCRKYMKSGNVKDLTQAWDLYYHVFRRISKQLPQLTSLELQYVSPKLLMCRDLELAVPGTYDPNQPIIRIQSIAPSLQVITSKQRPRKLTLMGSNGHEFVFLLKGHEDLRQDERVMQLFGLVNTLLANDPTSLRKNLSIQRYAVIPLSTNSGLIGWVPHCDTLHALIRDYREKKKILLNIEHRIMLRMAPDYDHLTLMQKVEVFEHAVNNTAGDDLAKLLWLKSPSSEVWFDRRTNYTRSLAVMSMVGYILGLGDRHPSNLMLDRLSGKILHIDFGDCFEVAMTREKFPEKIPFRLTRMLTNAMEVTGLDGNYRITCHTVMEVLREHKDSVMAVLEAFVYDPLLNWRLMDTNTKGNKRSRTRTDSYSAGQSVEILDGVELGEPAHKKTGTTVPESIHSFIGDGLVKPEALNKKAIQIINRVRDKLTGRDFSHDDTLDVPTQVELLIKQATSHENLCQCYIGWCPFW

| SMILES | IC50 (Recombinant mTOR (FRAP1)) | IC50 [1] | inhibition at 1 µM (Recombinant mTOR (FRAP1)) | inhibition at 1 µM ([1]; 1 uM compound, read-out: PI3K % Inhib@1 uM) |
| --- | --- | --- | --- | --- |
| C[C@H]1COCCN1c1nc(Oc2ccc(C(=O)N(C)C)cc2F)nc(-c2cnc(N)cc2C(F)(F)F)n1 [Compound 10067, (S)-4-((4-(6-Amino-4-(trifluoromethyl)pyridine-3-yl)-6-(3-methylmorpholino)-1,3,5-triazin-2-yl)oxy)-3-fluoro-N,N-dimethylbenzamide] | < 1 µM | < 1 µM |  |  |
| C[C@H]1COCCN1c1nc(O[C@H]2CC[C@H](C(=O)N(C)C)CC2)nc(-c2cnc(N)s2)n1 [Compound 10139, (1S,4r)-4-(4-(2-aminothiazol-5-yl)-6-((S)-3-methylmorpholino)-1,3,5-triazin-2-yloxy)-N,N-dimethylcyclohexanecarboxamide] | < 1 µM | < 1 µM | > 50% |  |
| CS(=O)(=O)N1CCC(COc2nc(-c3cnc(N)s3)nc(N3CCOCC3)n2)CC1 [Compound 10194, 5-(4-((1-(methylsulfonyl)piperidin-4-yl)methoxy)-6-morpholino-1,3,5-triazin-2-yl)thiazol-2-amine] |  | < 1 µM | < 50% |  |
| CN(C)C(=O)c1ccc(Oc2nc(-c3ccc(N)nc3)nc(N3CCCOCC3)n2)cc1 [Compound 10178, 4-((4-(6-aminopyridin-3-yl)-6-(1,4-oxazepan-4-yl)-1,3,5-triazin-2-yl)oxy)-N,N-dimethylbenzamide] |  | < 1 µM | < 50% |  |
| CN(C)C(=O)c1ccc(Oc2nc(-c3cnc(N)s3)nc(N3CCO[C@H]4CCC[C@@H]43)n2)c(F)c1 [Compound 10146, 4-(4-(2-aminothiazol-5-yl)-6-((4aS,7aS)-hexahydrocyclopenta[b][1,4]oxazin-4(4aH)-yl)-1,3,5-triazin-2-yloxy)-3-fluoro-N,N-dimethylbenzamide] | < 1 µM | < 1 µM |  |  |
| CN(C)C(=O)c1ccc(Oc2nc(-c3cnc(N)s3)nc(N3CCCOCC3)n2)cc1 [Compound 10192, 4-((4-(2-aminothiazol-5-yl)-6-(1,4-oxazepan-4-yl)-1,3,5-triazin-2-yl)oxy)-N,N-dimethylbenzamide] | > 1 µM | > 1 µM | < 50% |  |
| CN(C)C(=O)c1ccc(Oc2nc(-c3cnc(N)cc3C(F)(F)F)nc(N3CCOCC3)n2)c(F)c1 [Compound 10065, 4-((4-(6-Amino-4-(trifluoromethyl)pyridine-3-yl)-6-morpholino-1,3,5-triazin-2-yl)oxy)-3-fluoro-N,N-dimethylbenzamide] | < 1 µM | < 1 µM |  |  |
| CN(C)C(=O)c1cccc(Oc2nc(-c3cnc(N)s3)nc(N3CCOCC3)n2)c1 [Compound 10195, 3-((4-(2-aminothiazol-5-yl)-6-morpholino-1,3,5-triazin-2-yl)oxy)-N,N-dimethylbenzamide] |  | < 1 µM | < 50% |  |
| C[C@@H]1COCCN1c1nc(Oc2ccc(C(=O)N(C)C)cc2)nc(-c2cnc(N)s2)n1 [Compound 10004, (R)-4-(4-(2-aminothiazol-5-yl)-6-(3-methylmorpholino)-1,3,5-triazin-2-yloxy)-N,N-dimethylbenzamide] | < 1 µM | > 1 µM | < 50% |  |
| CN(C)C(=O)[C@H]1CC[C@H](Oc2nc(-c3cnc(N)s3)nc(N3CCO[C@H]4CCC[C@@H]43)n2)CC1 [Compound 10145, (1S,4r)-4-(4-(2-aminothiazol-5-yl)-6-((4aS,7aS)-hexahydrocyclopenta[b][1,4]oxazin-4(4aH)-yl)-1,3,5-triazin-2-yloxy)-N,N-dimethylcyclohexanecarboxamide] | > 1 µM |  |  | < 50% |
| CN(C)C(=O)c1ccc(Oc2nc(-c3cnc(N)s3)nc(N3CCOCC3)n2)cc1 [Compound 10017, 4-(4-(2-aminothiazol-5-yl)-6-morpholino-1,3,5-triazin-2-yloxy)-N,N-dimethylbenzamide] | < 1 µM | < 1 µM |  |  |
